Source: patent US20040191241A1, “Antigen with haptenic mannitol epitopes and a method of preparing antibodies specific to D-mannitol” (COUNCIL OF SCIENTIFIC AND INDUSTRIAL RESEARCH, priority 2003, published 2004)
Where two headings read alike, the source gives them in different places.

What was measured:
[1] = test system: hapten affinity-purified D-mannitol-specific antibody; assay: ELISA inhibition: specificity and cross-reactivity of the hapten affinity-purified antibody, D-mannitol-KLH coated wells; type: binding, rabbit; conditions: for Inhibition in ELISA (in words): comparison among inhibitors; for IC50: read-out: IC50 (concentration required for 50% inhibition in ELISA)
Experimental: FIG. 5 depicts specificity of the purified D-mannitol-specific antibody determined by ELISA inhibition. D-Mannitol-KLH conjugate (10 ng/well) was used for coating. The purified antibody (at 1:100 dilution) was preincubated with various inhibitors at different concentrations at 37° C. for 1 h before adding to the coated wells.
FIG. 6 depicts stereo specificity of the purified D-mannitol-specific antibody determined by ELISA inhibition. As L-mannitol is not available commercially, L-mannitol-BSA conjugate (prepared using L-mannose) was used as inhibitor and the inhibition was compared with that of D-mannitol-BSA conjugate.
To check for the formation of hapten-specific antibodies the antiserum was analyzed by non-competitive ELISA using the coated antigen format. The titer of the antiserum was determined by measuring the binding of serial dilutions of antiserum to coated mannitol-KLH conjugate. Flat bottom polystyrene microtiter wells were coated with mannitol-KLH conjugate at 1000, 100, 50, 10, and 1 ng per well in carbonate-bicarbonate buffer, pH 9.6 by incubating at 4° C. overnight. The wells were washed thrice between steps using PBS containing 0.05% Tween 20 (PBS-T). Blocking was done using 0.5% gelatin in PBS-T (blocking buffer) at 37° C. for 30 min. Antiserum diluted in blocking buffer (1:10, 1:100, 1:1000, 1:10000, 1:25000, 1:50000, 1:75000; 1:100000, 1:200000, 1:400000) was added (100 μL/well) and incubated at 37° C. for 2 h. Mouse anti-rabbit IgG-alkaline phoshatase secondary antibody (1:5000 dilution in blocking buffer, 100 μL/well) was added and incubated at 37° C. for 1 h. Color development was done using p-nitrophenyl phosphate (1 mg/mL, 100 μL/well) in diethanolamine buffer, pH 9.8, at 37° C. for 30 min. The reaction was stopped by adding 3 M NaOH (40 μL/well) and the absorbance at 405 nm was read in an ELISA reader.
The hapten affinity-purified D-mannitol-specific antibody was used for ELISA experiments to obtain the binding curves using D-mannitol-KLH conjugate for coating, and to study the specificity and cross-reactivity by ELISA inhibition experiments. Here, purified antibody was preincubated with various concentrations of inhibitors at 37° C. for 1 h before adding to coated microtiter wells. Other steps were as described under ‘Titration of antiserum’. Percent cross-reactivity for various inhibitors was calculated using the formula: […]

[2] = test system: mannitol-specific mast cell-bound human IgE; assay: Skin prick test (SPT) in an allergic subject sensitized to mannitol; type: in vivo; conditions: for Wheal diameter / Flare diameter: SPT, free compounds at 0.1%; for Wheal diameter: first figure of wheal/flare; for Flare diameter: second figure of wheal/flare
Excerpt: A D-mannitol-BSA and D-mannitol-KLH conjugate was used for skin prick test (SPT) in a mannitol-allergic subject, after obtaining Institutional Ethics Committee (IEC) clearance, and informed consent. D-Mannitol and its conjugates with BSA and KLH produced positive test whereas, D-mannose and control BSA and control KLH gave negative test (Table 2). L-Mannitol BSA conjugate was negative in SPT. All these samples were negative in SPT in 10 normal subjects.

[3] = (IC50 for D-mannitol ÷ IC50 for test compound) × 100
[4] = free sugars/sugar alcohols as competitor, D-mannitol-KLH 10 ng/well coating, antibody 1:100, preincubated 37° C. 1 h

IC50 [1, 4] [mM] | Molecule | Percent cross-reactivity [1, 3] [%] | Percent cross-reactivity ([1]; (IC50 for D-mannitol ÷ IC50 for test compound) × 100, listed as D-glucitol (sorbitol)) [%] | Inhibition in ELISA (in words) [1] | SPT result (positive/negative) [2] | Wheal diameter [2] [mm] | Flare diameter [2] [mm] | IC50 ([1]; BSA conjugates as inhibitor (stereospecificity, FIG. 6)) [mM] | Percent cross-reactivity ([1]; conjugate inhibitors, relative to D-mannitol-BSA conjugate) [%]
60 | OC[C@@H](O)[C@@H](O)[C@H](O)[C@@H](O)CO [D-Glucitol] | 8.8 | ~9 | higher compared to that by meso-erythritol and D-mannose | – | – | – | – | –
5.25 | OC[C@@H](O)[C@@H](O)[C@H](O)[C@H](O)CO [D-Mannitol] | 100.0 | – | maximum inhibition | positive | 5 | 25 | – | –
– | O=C[C@@H](O)[C@@H](O)[C@H](O)[C@H](O)CO [D-Mannose] | 4.9 | – | – | negative | 1 | 0 | – | –
– | NCCc1c[nH]cn1 [Histamine base] | – | – | – | – | 6 | 30 | – | –
– | NCCCC[C@H](N)C(=O)O [L-lysine] | 2 | – | – | – | – | – | – | –
– | OCC(O)C(O)CO (stereo not drawn) [meso-Erythritol] | 4.9 | – | – | – | – | – | – | –
– | Control BSA: BSA incubated under the conjugation conditions, excluding D-mannose | – | – | – | negative | 1 | 0 | – | –
– | N-(1-deoxy-D-mannitol-1-yl)n-carrier [D-Mannitol-BSA conjugate] | – | – | – | positive | 4 | 30 | 0.00064 | 100.00
– | N-(1-deoxy-D-mannitol-1-yl)n-carrier [D-Mannitol-KLH conjugate] | – | – | – | positive | 4 | 25 | – | –
